Measurements: patent publication US20040014696A1, “Specificity in treatment of diseases” (priority 2003, published 2004)

How the values were obtained:
[1] = RBC radioactivity in mice after repeated oral dosing; format: in vivo; conditions: oral 300 mg/kg daily for 8 days; for Medium RBC Radioactivity (Mice): Cmin in RBCs
[2] = target: T1, Adenosine deaminase (ADA) (Bos taurus, UniProt P56658); test: In vitro deamination by adenosine deaminase (UV 240 nm, mass spectrum); format: biochemical, calf; conditions: 0.2 mM compound with 0.5 μM ADA overnight, mass spectrum analysis
T1 construct: Adenosine deaminase (ADA) isolated from calf intestine; purchased Boehringer Mannheim; host or cells: calf intestine (tissue-isolated)
T1 sequence (P56658 1-363): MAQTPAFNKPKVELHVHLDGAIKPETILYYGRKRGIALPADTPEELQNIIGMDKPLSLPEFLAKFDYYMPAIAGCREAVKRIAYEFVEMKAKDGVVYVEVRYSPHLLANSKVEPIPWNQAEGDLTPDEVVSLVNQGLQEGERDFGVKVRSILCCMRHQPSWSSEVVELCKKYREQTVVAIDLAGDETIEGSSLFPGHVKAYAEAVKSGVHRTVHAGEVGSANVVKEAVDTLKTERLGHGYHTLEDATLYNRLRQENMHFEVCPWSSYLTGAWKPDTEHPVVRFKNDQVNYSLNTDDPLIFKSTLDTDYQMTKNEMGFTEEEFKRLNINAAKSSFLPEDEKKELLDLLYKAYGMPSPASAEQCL
Protocol: Adenosine deaminase (ADA) isolated from calf intestine was purchased from Boehringer Mannheim. The assay was performed in Dulbecco's PBS buffer (Na2HPO4, 8 mM; […] KCl, 2.7 mM; NaCl, 138 mM; pH 7.2) at room temperature (23° C.). […] Taking the limit of the UV assay method, the spontaneous hydrolysis of viramidine will be less than 2.5×10^−5 min^−1. […] The enzyme turnover number was estimated about 2.5 min^−1 at the current assay condition.

[3] = RBC radioactivity in portal vein-cannulated cynomolgus monkeys; conditions: for Medium RBC Radioactivity (Monkeys - multiple doses) / Medium RBC Radioactivity (Monkeys - single dose) / Time to peak radioactivity concentration in RBC: cynomolgus monkeys; for Medium RBC Radioactivity (Monkeys - multiple doses): projected steady state; for Medium RBC Radioactivity (Monkeys - single dose) / Time to peak radioactivity concentration in RBC: single oral dose 30 mg/kg
[4] = Liver radioactivity estimated from portal vs systemic plasma in portal vein-cannulated monkeys; format: in vivo
[5] = system: erythrocytes; test: Phosphorylation in erythrocytes; format: cell-based
Text: For example, the selectivity of the pharmacological effect of 1-beta-D-ribofuranosyl-1,2,4-triazole-3-carboxamide (Ribavirin, Structure 1) is increased by covalently coupling an ═NH group to Ribavirin to form a carboxamidine group. Ribavirin is known to have antiviral properties in hepatitis virus-infected hepatocytes (e.g., see review Marcellin, P. and Benhamou J.; Treatment of chronic viral hepatitis, Baillieres Clin Gastroenteol 1994 June; 8(2):233-53). It is also known, that Ribavirin is readily phosphorylated in erythrocytes to the pharmacologically active form Ribavirin-phosphate at a significant rate (e.g., Homma, M. et al. High-performance liquid chromatographic determination of Ribavirin in whole blood to assess disposition in erythrocytes; Antimicrob Agents Chemother 1999 November; 43(11):2716-9), which reduces the selective pharmacological effect.

[6] = system: RBCs; test: In vitro transport into RBCs; format: cell-based; conditions: in vitro studies (data not shown)
[7] = Spontaneous hydrolysis in Dulbecco's PBS buffer without enzyme; format: physicochemical
Protocol: Adenosine deaminase (ADA) isolated from calf intestine was purchased from Boehringer Mannheim. The assay was performed in Dulbecco's PBS buffer (Na2HPO4, 8 mM; […] KCl, 2.7 mM; NaCl, 138 mM; pH 7.2) at room temperature (23° C.). […] Taking the limit of the UV assay method, the spontaneous hydrolysis of viramidine will be less than 2.5×10^−5 min^−1.

[8] = Liver radioactivity in mice after repeated oral dosing; format: in vivo; conditions: oral 300 mg/kg daily for 8 days; for Total Liver Radioactivity: Cmin in liver; for Modified Ribavirin in liver: analyte modified Ribavirin
[9] = Toxicity findings (hemolytic anemia, RBCs) in Rhesus monkeys; conditions: 60 mg/kg followed by 30 mg/kg*day for 10 days

| SMILES | Medium RBC Radioactivity (Mice) [1] | Radioactivity concentration Cmin in RBCs, comparison ([1]; modified Ribavirin vs Ribavirin) | Conversion to Ribavirin [2] | Medium RBC Radioactivity (Monkeys - multiple doses) ([3]; multiple dosing at 30 mg/kg) | Medium RBC Radioactivity (Monkeys - single dose) [3] | Time to peak radioactivity concentration in RBC [3] | RBC radioactivity as compared to Ribavirin ([4]; monkeys) | Liver radioactivity concentration, higher than after oral dosing of Ribavirin ([4]; portal vein-cannulated monkeys, oral administration) | Phosphorylation in erythrocytes [5] | Transport into RBCs [6] | Spontaneous hydrolysis rate ([7]; limit of the UV assay method, pH 7.2) | Spontaneous hydrolysis in buffer ([7]; no enzyme, pH 7.2, 1.5 h, 23° C.) | Effect of zinc ion on spontaneous hydrolysis rate ([7]; zinc ion added to the buffer) | Share of liver radioactivity accounted for by modified Ribavirin [8] | Total Liver Radioactivity [8] | RTCA in liver ([8]; analyte RTCA) | Modified Ribavirin in liver [8] | Toxicity findings on RBCs [9] | Projected steady-state RBC radioactivity concentrations, comparison ([3]; multiple dosing at 30 mg/kg, Ribavirin compared to modified Ribavirin) | Radioactivity concentration Cmin in the liver, comparison ([8]; Ribavirin compared to modified Ribavirin) |
| --- | --- | --- | --- | --- | --- | --- | --- | --- | --- | --- | --- | --- | --- | --- | --- | --- | --- | --- | --- | --- |
| N=C(N)c1ncn([C@@H]2O[C@H](CO)[C@@H](O)[C@H]2O)n1 [modified Ribavirin, 1-beta-D-ribofuranosyl-1,2,4-triazole-3-carboxamidine] | 0.38 μg equiv/g | significantly lower | more than 75% | ˜606 μg equiv/g | ˜17 μg equiv/g | 24 h | ~12% | approximately 50% | is not, or is only insignificantly phosphorylated in erythrocytes | not directly transported into RBCs | less than 2.5×10^−5 min^−1 | no spontaneous hydrolysis | does not enhance the spontaneous hydrolysis rate | about 30% | 23.8 μg equiv/g | not detected | ˜7.2 μg eguiv/g μg equiv/g | no significant changes in RBCs |  |  |
| NC(=O)c1ncn([C@@H]2O[C@H](CO)[C@@H](O)[C@H]2O)n1 [Ribavirin, 1-beta-D-ribofuranosyl-1,2,4-triazole-3-carboxamide, reference compound] | 1.36 μg equiv/g |  |  | ˜5089 μg equiv/g | ˜41 μg equiv/g | 24 h |  |  |  |  |  |  |  |  | 18.4 μg equiv/g |  | not detected | suffered from hemolytic anemia and significant decrease in RBCs | significantly higher | significantly lower |
